Experimental findings from EP0148283A1, “Novel penicillanic acid derivatives” (F. HOFFMANN-LA ROCHE & CO. Aktiengesellschaft, priority 1983, dated 1985) are described below.

What all share (assay): In vitro antibacterial activity, MIC by broth dilution in 96-well trays
Type in all cases: cell-based
(In broth dilution the organism is exposed to a series of concentrations in liquid medium.)

One assay has as its system P.aeruginosa. Conditions: Pseudomonas aeruginosa. The protocol: (§1) The in vitro antibacterial activity of the following compounds:
(§2) The diluted agents are dispensed in 100 µl amounts into the wells of a 96-well tray and used immediately or frozen at -10 to -70°C until needed. Using an automated inoculator, 1.5 µl of a 10^-2 dilution of an overnight culture is added to each well of the tray. The tops of the trays are then sealed using transparent tape and incubated overnight at 37°C. The trays are examined with the aid of a viewer. The lowest concentration at which no growth is observed is considered to be the minimum inhibitory concentration (MIC). [formula] [formula] [formula] [formula] [formula] [formula] [formula] [formula] [formula] [formula] [formula]

In the next assay the test system is S. aureus. The following applies: Staphylococcus aureus. The protocol:
as §1, §2

Another assay relates to S. pneumoniae. Conditions: Streptococcus pneumoniae. The protocol: as §1, §2
The next assay relates to S. pyogenes. The following applies: Streptococcus pyogenes. The protocol: as §1, §2
For another assay, the system named is S. faecalis. Conditions: Enterococcus faecalis; S. faecalis C1. The protocol:
as §1, §2

In general, MIC refers to the lowest concentration found to suppress growth. Read a high MIC as a less susceptible organism.

The structures appear in SMILES notation. Counter-ions that a name gives are not always drawn.

As to `CC1(C)S[C@@H]2[C@H](N=CN3CCC(CC4=NCCCN4)CC3)C(=O)N2[C@H]1C(=O)O` [Compound U, [2S-(2alpha,5alpha,6beta)]-6-[[[4-[(1,4,5,6-tetrahydro-2-pyrimidinyl)methyl]-1-piperidinyl]-methylene]amino]-3,3-dimethyl-7-oxo-4-thia-1-azabicyclo[3.2.0]heptane-2-carboxylic acid hydrochloride], the MIC is 64 µg/mL in the assay on P.aeruginosa (P.aeruginosa strain 503-56); > 128 µg/mL in the assay with P.aeruginosa (P.aeruginosa strain 503-820); 0.5 µg/mL against P.aeruginosa (P.aeruginosa strain 5700); > 128 µg/mL with P.aeruginosa (P.aeruginosa strain 5712); 128 µg/mL with P.aeruginosa (P.aeruginosa strain 6148B); > 128 µg/mL with P.aeruginosa (P.aeruginosa strain 8710). Also, the MIC against P.aeruginosa (P.aeruginosa strain 8780) is > 128 µg/mL; with P.aeruginosa (P.aeruginosa strain B), 9.5 µg/mL; against P.aeruginosa (P.aeruginosa strain POW 151) it was > 128 µg/mL; against P.aeruginosa (P.aeruginosa strain Stone 130) it was > 128 µg/mL; with S. aureus (S. aureus strain 1059B) it was > 128 µg/mL; in the assay on S. aureus (S. aureus strain Giorgio), 8 µg/mL. Besides, the MIC was 8 µg/mL against S. aureus (S. aureus strain Smith); 2 µg/mL against S. pneumoniae (S. pneumoniae strain 6301); 4 µg/mL against S. pneumoniae (S. pneumoniae strain 6302); 4 µg/mL against S. pneumoniae (S. pneumoniae strain SC); 4 µg/mL in the assay with S. pyogenes (S. pyogenes strain 4); > 128 µg/mL against S. pyogenes (S. pyogenes strain 503-782). The compound further gave an MIC with S. faecalis of 128 µg/mL.

For `CC1(C)S[C@@H]2[C@H](N=CN3CCCC(c4ncc[nH]4)C3)C(=O)N2[C@H]1C(=O)O` (stereo partly drawn) [P, [2S-(2alpha,5alpha,6beta)]-6-[[[3-(1H-imidazol-2-yl)-1-piperidinyl]methylene]amino]-3,3-dimethyl-7-oxo-4-thia-1-azabicyclo[3.2.0]heptane-2-car-boxylic acid hydrochloride], the MIC in the assay on P.aeruginosa (P.aeruginosa strain 503-56) is > 128 µg/mL; in the assay on P.aeruginosa (P.aeruginosa strain 503-820) it was > 128 µg/mL; against P.aeruginosa (P.aeruginosa strain 5700), 8 µg/mL; with P.aeruginosa (P.aeruginosa strain 5712), > 128 µg/mL; against P.aeruginosa (P.aeruginosa strain 6148B), > 128 µg/mL; in the assay with P.aeruginosa (P.aeruginosa strain 8710), > 128 µg/mL. The MIC is > 128 µg/mL against P.aeruginosa (P.aeruginosa strain 8780); 8 µg/mL against P.aeruginosa (P.aeruginosa strain B); > 128 µg/mL in the assay with P.aeruginosa (P.aeruginosa strain POW 151); > 128 µg/mL with P.aeruginosa (P.aeruginosa strain Stone 130); 64 µg/mL in the assay with S. aureus (S. aureus strain 1059B); 4 µg/mL in the assay on S. aureus (S. aureus strain Giorgio). The MIC with S. aureus (S. aureus strain Smith) was determined as 2 µg/mL; in the assay on S. pneumoniae (S. pneumoniae strain 6301), 1 µg/mL; against S. pneumoniae (S. pneumoniae strain 6302), 1 µg/mL; against S. pneumoniae (S. pneumoniae strain SC), 1 µg/mL; against S. pyogenes (S. pyogenes strain 4) it was 0.5 µg/mL; with S. pyogenes (S. pyogenes strain 503-782), 64 µg/mL. The compound also came in with an MIC in the assay on S. faecalis of 64 µg/mL.

Take `CC1(C)S[C@@H]2[C@H](N=CN3CCC(Cc4ncc[nH]4)CC3)C(=O)N2[C@H]1C(=O)O` [Q, [2S-(2alpha,5alpha,6beta)]-6-[[[4-(1H-imidazol-2-yl-methyl)-1-piperidinyl]methylene]amino]-3,3-dimethyl-7-oxo-4-thia-1-azabicyclo[3.2.0]heptane-2-carboxylic acid hydrochloride]: the MIC against P.aeruginosa (P.aeruginosa strain 503-56) was 64 µg/mL; in the assay on P.aeruginosa (P.aeruginosa strain 503-820), 128 µg/mL; in the assay with P.aeruginosa (P.aeruginosa strain 5700) it was 0.125 µg/mL; with P.aeruginosa (P.aeruginosa strain 5712), > 128 µg/mL; in the assay with P.aeruginosa (P.aeruginosa strain 6148B), 128 µg/mL; in the assay with P.aeruginosa (P.aeruginosa strain 8710), 128 µg/mL. Further, the MIC in the assay with P.aeruginosa (P.aeruginosa strain 8780) is > 128 µg/mL; in the assay on P.aeruginosa (P.aeruginosa strain B), 0.25 µg/mL; against P.aeruginosa (P.aeruginosa strain POW 151), > 128 µg/mL; against P.aeruginosa (P.aeruginosa strain Stone 130) it was > 128 µg/mL; against S. aureus (S. aureus strain 1059B) it was 128 µg/mL; in the assay with S. aureus (S. aureus strain Giorgio), 8 µg/mL. Moreover, the MIC came to 8 µg/mL against S. aureus (S. aureus strain Smith); 1 µg/mL in the assay with S. pneumoniae (S. pneumoniae strain 6301); 2 µg/mL in the assay with S. pneumoniae (S. pneumoniae strain 6302); 2 µg/mL against S. pneumoniae (S. pneumoniae strain SC); 1 µg/mL in the assay on S. pyogenes (S. pyogenes strain 4); 128 µg/mL in the assay with S. pyogenes (S. pyogenes strain 503-782). The compound further showed an MIC in the assay with S. faecalis of 128 µg/mL.

As for `CC1(C)S[C@@H]2[C@H](N=CN3CCC(CCCn4ccnc4CO)CC3)C(=O)N2[C@H]1C(=O)O` [R, [2S-(2alpha,5alpha,6beta)]-6-[[[4-[3-[2-(hydroxy-methyl)-1H-imidazol-1-yl]propyl-1-piperidinyl]-methylene]amino]-3,3-dimethyl-7-oxo-4-thia-1-azabicyclo[3.2.0]heptane-2-carboxylic acid hydrochloride 1.1 molar hydrate], the MIC against P.aeruginosa (P.aeruginosa strain 503-56) is > 128 µg/mL; against P.aeruginosa (P.aeruginosa strain 503-820), 128 µg/mL; against P.aeruginosa (P.aeruginosa strain 5700) it was > 128 µg/mL; against P.aeruginosa (P.aeruginosa strain 5712), > 128 µg/mL; against P.aeruginosa (P.aeruginosa strain 6148B), 128 µg/mL; with P.aeruginosa (P.aeruginosa strain 8710), > 128 µg/mL. Moreover, the MIC is > 128 µg/mL in the assay on P.aeruginosa (P.aeruginosa strain 8780); 128 µg/mL against P.aeruginosa (P.aeruginosa strain B); > 128 µg/mL with P.aeruginosa (P.aeruginosa strain POW 151); > 128 µg/mL against P.aeruginosa (P.aeruginosa strain Stone 130); 64 µg/mL against S. aureus (S. aureus strain 1059B); 8 µg/mL in the assay with S. aureus (S. aureus strain Giorgio). The MIC against S. aureus (S. aureus strain Smith) came to 8 µg/mL; in the assay on S. pneumoniae (S. pneumoniae strain 6301), 1 µg/mL; in the assay with S. pneumoniae (S. pneumoniae strain 6302), 1 µg/mL; against S. pneumoniae (S. pneumoniae strain SC), 0.5 µg/mL; against S. pyogenes (S. pyogenes strain 4) it was 0.5 µg/mL; in the assay on S. pyogenes (S. pyogenes strain 503-782), 128 µg/mL. Moreover, 128 µg/mL was the least that counted as inhibitory with S. faecalis (MIC).

Turning to `CN(C)C=Nc1nccn1CCCC1CCN(C=N[C@@H]2C(=O)N3[C@@H]2SC(C)(C)[C@@H]3C(=O)O)CC1` [S, [2S-(2alpha,5alpha,6beta)]-6-[[[4-[3-[2-[[(dimethylamino)methylene]amino]-1H-imidazol-1-yl]propyl]-1-piperidinyl]methylene]amino]-3,3-dimethyl-7-oxo-4-thia-1-azabicyclo[3.2.0]heptane-2-carboxylic acid 1.7 molar hydrochloride 2.6 molar hydrate], the MIC in the assay on P.aeruginosa (P.aeruginosa strain 503-56), in the assay on P.aeruginosa (P.aeruginosa strain 503-820), in the assay on P.aeruginosa (P.aeruginosa strain 5700), in the assay with P.aeruginosa (P.aeruginosa strain 5712), in the assay on P.aeruginosa (P.aeruginosa strain 6148B) and with P.aeruginosa (P.aeruginosa strain 8710) was > 128 µg/mL throughout. In addition, the MIC was > 128 µg/mL against P.aeruginosa (P.aeruginosa strain 8780); > 128 µg/mL against P.aeruginosa (P.aeruginosa strain B); > 128 µg/mL with P.aeruginosa (P.aeruginosa strain POW 151); > 128 µg/mL in the assay with P.aeruginosa (P.aeruginosa strain Stone 130); 64 µg/mL in the assay with S. aureus (S. aureus strain 1059B); 8 µg/mL in the assay with S. aureus (S. aureus strain Giorgio). Besides, the MIC against S. aureus (S. aureus strain Smith) came to 8 µg/mL; in the assay with S. pneumoniae (S. pneumoniae strain 6301), 2 µg/mL; against S. pneumoniae (S. pneumoniae strain 6302) it was 1 µg/mL; against S. pneumoniae (S. pneumoniae strain SC), 0.5 µg/mL; in the assay with S. pyogenes (S. pyogenes strain 4), 0.25 µg/mL; against S. pyogenes (S. pyogenes strain 503-782) it was 128 µg/mL. Also, the MIC in the assay on S. faecalis was 128 µg/mL.
